According to patent publication US20100080860A1, “Application of short-chain monocarboxylic acids for crop protection” (UNIVERSITAT JAUME I, priority 2005, published 2010):
≈ marks a conversion by molar mass, not a printed value. Where “and” joins values, the source holds several entries; their conditions need not be identical. Identical values can stand only once.

Columns and labels:
B. cinerea spores = assay: Direct antimicrobial effect in vitro: spore germination, mycelium growth, MIC/MFC in PDB; assay type: cell-based, Botrytis cinerea
Description: Test mixture contained 4×10^6 conidia/ml PDB (potatodextrose broth, Difco, Detroit, Mich., USA). Treatments (hexanoic acid and heptanoic acid) were added to PDB from stock solutions in order to obtain the different concentrations to be used (0.06 to 30 mM). Medium pH was adjusted to 3.6-5.5 using HCl or NaOH. One ml of each mixture was dispensed into sterile 24-well microplates and then incubated at 20° C. under gentle stirring. Percentage of germinated spores was calculated after 20 h incubation by staining with 0.1% lacto-fucshin (1:1) followed by microscopic observation of 100 spores. Spores were considered to be germinated when the length of germ tube was equal to or greater than spore. For assessment of efficacy in long-term treatments, test culture was left for a 7-day incubation period under previously described conditions, and mycelium development was assessed as follows: 3 ml of each culture were vacuum-filtered through pre-weighed nitrocellulose filters (Millipore, ref. HAWP02500). The filters were dried at 85° C. until weight was constant at room temperature.
For measurement of treatment effects on mycelium growth, 9×10^6 spores were inoculated to a final volume of 150 ml PDB. After 20 h incubation, spores were examined for germination by microscopic analysis, then treatments were added, and pH was adjusted to 5.5. Cultures were incubated at 20° C. under gentle stirring. After 96 h, mycelium growth was measured by determining dry weight, as described herein. […] After MIC determination, minimum fungicidal concentration (MFC) was measured as follows. After 20 h incubation, an aliquot of the cultures, in which no growth had been detected, was taken, then washed three times and added to a fresh medium without added treatment. After 20 h incubation, under previously described conditions, the germination percentage was estimated. MFC is the minimum concentration of test compound at which microorganisms are not recovered.

B. cinerea [1] = assay: Spray treatment of tomato plants with hexanoic acid potassium salt, B. cinerea inoculation; assay type: in vivo, Botrytis cinerea; conditions: for % inhibition of infection versus control: 72 h
Description: Hexanoic acid potassium salt was provided by preparing a mole-to-mole solution of hexanoic acid with K2CO3. A concentrated solution was prepared, adjusted to pH 6, and then dilutions were performed in order to provide in-use concentrations, namely, 20 mM, 10 mM, 6 mM and 3 mM.
The plants were treated with the formed salt by spray application and then left to dry for 30 minutes. Afterwards, treated leaves, which were previously incubated for 2 h in Gamborg medium supplemented with sucrose and phosphate, were inoculated with 5 μl of a suspension containing 10^6 spores/ml of B. cinerea, and then stored in a high-humidity chamber at 25° C. for 72 h.
The infection diameter was measured and, finally, the germination percentage was determined.

B. cinerea [2] = assay: Hexanoic acid root application in hydroponic cultivation, protection of tomato plants against B. cinerea; assay type: in vivo, Botrytis cinerea; conditions: control: water
Description: (§1) Experiments were performed with 4-week-old tomato plants (Cv. Ailsa Craig) in hydroponic cultivation. Before initiation of treatment, the plants were maintained in hydroponic cultivation for 1 week for habituation under such cultivation conditions. Treatment comprised the addition of hexanoic acid to a nutrient solution (Hoagland solution) at the following concentrations: 0.06 mM, 0.6 mM, 3 mM, 6 mM, 16 mM and 20 mM, pH was adjusted to 6. After 48 hours of treatment, the leaflets of the third and fourth true leaves were inoculated with 5 μl of a suspension containing 10^6 conidia B. cinerea/ml. Spores had previously been incubated in Gamborg medium (Duchefa Biochemie, The Netherlands) supplemented with sucrose and phosphate, over a period of 2 h. Spores were inoculated in this medium. For each treatment, 10 plants were used, which were kept under humidity- and temperature-controlled conditions (80% RH, 21° C.). Sampling was performed at 48, 72, 96 and 120 hours after inoculation.

B. cinerea [3] = assay: Hexanoic acid root application in soil cultivation, protection of tomato plants against B. cinerea; assay type: in vivo, Botrytis cinerea; conditions: control: water
Description: as §1
Plants were cultivated in soil and the solutions of hexanoic acid, at different concentrations, were prepared and applied in the same manner as that described above. Control was water.

B. cinerea [4] = assay: Hexanoic acid root application in soil cultivation, protection of Arabidopsis plants against B. cinerea; assay type: in vivo, Botrytis cinerea
Description: (§2) Experiments were performed with 5-week-old Arabidopsis plants cultivated in soil. Two weeks after germination, the plants were transplanted into single pots and kept at a temperature of 20° C. day/18° C. night and 8.5 h light cycle for 24 h and 60% relative humidity (RH).
(§3) The plants were treated with different concentrations of hexanoic acid (0.6 mM, 0.8 mM and 1 mM) and inoculated with 6 μl of 2.5×10^4 spores/mL Botrytis cinerea and 2×10^6 spores/mL Alternaria brassicicola.
(§4) Sampling was performed at 48, 72, 96 and 120 hours after inoculation.

A. Brassicicola = assay: Hexanoic acid root application in soil cultivation, protection of Arabidopsis plants against A. Brassicicola; assay type: in vivo, Alternaria brassicicola; conditions: 0.8 mM
Description: as §2, §3, §4

B. cinerea [5] = assay: Spray application of hexanoic acid on tomato plants against B. cinerea; assay type: in vivo, Botrytis cinerea; conditions: for % inhibition of invention versus control: spray application, tomato plants
Botrytis cinerea = assay: Post-harvest treatment: combined inoculation of hexanoic acid and Botrytis cinerea spores into tomato fruits; assay type: in vivo; conditions: combined inoculation with spores, preliminary studies
Description: Preliminary studies were also performed on the application of hexanoic acid for post-harvest treatment.

Peronospora parasitica = assay: Induced resistance in Arabidopsis thaliana against Peronospora parasitica; assay type: in vivo
Pseudomonas syringe = assay: Induced resistance in Arabidopsis thaliana against Pseudomonas syringe; assay type: in vivo

CCCCCCC(=O)O [heptanoic acid]
concentration from which spore germination is significantly decreased / inhibited (B. cinerea spores; B. cinerea spores in vitro): ≥ 6 mM | effect on spore germination compared with hexanoic acid (B. cinerea spores; B. cinerea spores in vitro): the same at the same concentration range | germ tube development (B. cinerea spores; B. cinerea spores in vitro): entirely prevents germ tube development

CCCCCC(=O)[O-].[K+] [Hexanoic acid potassium salt]
% inhibition of infection versus control (B. cinerea [1]; 6 mM): 52.1% | % inhibition of infection versus control (B. cinerea [1]; 10 mM): 61.3% | % inhibition of infection versus control (B. cinerea [1]; 20 mM, listed as potassium salt, potassium salt): 80% | % inhibition of infection versus control (B. cinerea [1]; 20 mM, potassium salt): 80.3% | % inhibition of infection versus control (B. cinerea [1]; 3M): 49.8% | inhibition at 3000 µM (B. cinerea [1]; Botrytis cinerea, 3 mM, read-out: inhibition of fungal infection): ~50%

CCCCCC(=O)O [hexanoic acid]
% inhibition of infection versus control (B. cinerea [2]; 0.06 mM): 35.57% | % inhibition of infection versus control (B. cinerea [2]; 0.6 mM): 48.90% | % inhibition of infection versus control (B. cinerea [2]; 3 mM): 64.06% | % inhibition of infection versus control (B. cinerea [2]; 6 mM): 61.98% | % inhibition of infection versus control (B. cinerea [2]; 16 mM): 63.52% | % inhibition of infection versus control (B. cinerea [2]; 20 mM): 53.60% | % inhibition of infection versus control (B. cinerea [3]; 0.06 mM): 60.15% | % inhibition of infection versus control (B. cinerea [3]; 0.6 mM): 49.77% | % inhibition of infection versus control (B. cinerea [4]; 0.6 mM): 10% | % inhibition of infection versus control (B. cinerea [4]; 0.8 mM): 28% | % inhibition of infection versus control (B. cinerea [4]; 1 mM): 38% | % inhibition of infection versus control (A. Brassicicola; time after inoculation 48): 54.5% | % inhibition of infection versus control (A. Brassicicola; time after inoculation 72): 40.5% | % inhibition of infection versus control (A. Brassicicola; time after inoculation 96): 6.3% | % inhibition of invention versus control (B. cinerea [5]; 3 mM): 7.63% | % inhibition of invention versus control (B. cinerea [5]; 16 mM): 67% and 66.85% | % inhibition of invention versus control (B. cinerea [5]; 20 mM): 81% and 81.47% | curative effect in plants already inoculated (B. cinerea [5]; plants already inoculated with B. cinerea, preliminary results): restrains the progress of necrosis | concentration from which spore germination is significantly decreased / inhibited (B. cinerea spores; B. cinerea spores in vitro): ≥ 3 mM | concentration that entirely inhibits germination (B. cinerea spores; B. cinerea spores in vitro): 16 mM | MFC (B. cinerea spores; Botrytis cinerea, 20 h, read-out: minimum fungicidal concentration (MFC)): 16 mM (≈ 1860 µg/mL) | reversibility of the inhibitor effect after spore washing (B. cinerea spores; spores treated at MFC, treatment removed by washing): irreversible fungicidal effect | mycelium development in already germinated spores (B. cinerea spores; treatment added after germination): inhibits mycelium development | infection rate of treated fruits (Botrytis cinerea): significant decrease in the infection rate | induced resistance (Peronospora parasitica): induced resistance | induced resistance (Pseudomonas syringe): induced resistance
